# US20230391841A1, “MACROCYCLIC PEPTIDES” (Herantis Pharma OYJ, priority 2019, published 2023)
# Bridge positions count the residues as written; N and C are the ends. Peptide text beside a SMILES is read from it.
# Experiments:
# [1] = In vitro metabolic stability in rat plasma; assay type: in vitro ADME; settings: 1 μM, 37° C., up to 120 min
# Description: The linear and macrocyclic compounds 1-14 and 23-26 (SEQ ID NOs: 1-14 and 23-26) were incubated in concentration 1 μM with rat plasma (Sprague-Dawley, male; 400 μl) for different time points (0, 20, 40, 60 or 120 min) at 37° C. The incubation was terminated by acetonitrile. The collected samples were centrifuged for 20 min at 2272×g and analyzed. io Stock solutions were prepared using 50% DMSO, and the compounds were spiked 1/100 to incubation to have final DMSO content of 0.5%. The samples were analyzed by UHPLC/PDA with high resolution mass spectrometry (QE-Orbitrap-MS on DDI mode) to monitor disappearance of the compound. Enalapril 1 μM was used as a disappearance rate control. For analysis of compounds 9, 10, 13 and 14 stock solutions were prepared with PBS, and samples were analyzed by UHPLC-ToF mass spectrometry. The analytical method was optimized by using the parent compounds for optimum chromatographic properties (peak shape and retention) and mass spectrometric ionization. The ion chromatograms were extracted from the total ion chromatograms using calculated monoisotopic accurate masses with 5 mDa window. Disappearance was based on LC/MS peak areas, marking 0 min as 100%.
# The first-order rate constants k (min-1) of the metabolism were obtained from the slope of time versus logarithm (% of remaining compound) plot using Excel software. The in vitro half-life (t1/2) of study compound is defined as: t1/2=In2/k. Calculated half-life is based on compound disappearance from rat plasma.
# GRP78-NBD = test: Binding to GRP78-NBD Kd (μM)
# Source text: Table printed on a drawing sheet, FIG. 5B
# Head of the field: Binding to GRP78-NBD Kd (μM)
# GRP78-NBD is shown in a translucent surface model along with its cartoon trace. The Cys-Cys bond in compound 12 (SEQ ID NO: 12) is shown in sticks.
# The binding affinities are obtained by a microscale thermophoresis-based cell-free assay.
# GSK2606414 was used to inhibit PERK signaling and KIRA6 to inhibit IRE1alpha signaling. * p<0.05, ** p<0.01, *** p<0.001, **** p<0.0001 one-way ANOVA is test with post-hoc Fisher's LSD test for pairwise comparison vs MPP+ negative control. # p<0.05, ## p<0.01, ### p<0.001, #### p<0.0001 one-way ANOVA test with post-hoc Fisher's LSD test for pairwise comparison between effect of compound alone and its combination with UPR signal inhibitor.
# Where the first naming reader finds the target: head: Binding to GRP78-NBD Kd (μM)
# [2] = test system: dopaminergic TH-positive neurons injured with MPP+; test: Dependence of neuroprotective activity on UPR pathway signaling (MPP+ injured mesencephalic neurons with PERK or IRE1alpha inhibitor); assay type: cell-based, rat; settings: for neuroprotective effect in the presence of PERK inhibitor GSK2606414: GSK2606414 added 1 h before test compound; for neuroprotective effect in the presence of IRE1alpha inhibitor KIRA6: KIRA6 added 1 h before test compound
# Description: CDNF and MANF protect cells from ER stress-induced cell dysfunction or cell death, such as apoptosis by modulating cellular responses to ER stress. […] Binding of compounds to GRP78-NBD was assessed in a cell-free binding assay using purified recombinant GRP78-NBD and synthesized peptides. As GRP78 also serves as a critical ligand of the three receptors of the unfolded protein response (UPR) pathway, […], PERK and ATF6, the dependency of the compounds' neuroprotective effects on UPR signaling was also tested.
# The neuronal cell culture, MPP+ intoxication, immunostaining and analysis of neuroprotective effects of compounds were performed as in Example 1. PERK inhibitor GSK2606414 (2 µM , Sigma) or IRE1alpha inhibitor KIRA6 (2 µM , Sigma) were added to the culture 1 h before addition of the test compounds.
# [3] = In vivo pharmacokinetics after intravenous administration to rats; parameters: species or system male Sprague-Dawley rats; settings: for AUC(0-inf) / MRT / Vd / half-life / clearance: rat, 5 mg/kg intravenous bolus, male Sprague-Dawley rats; for AUC(0-inf) / MRT / Vd / half-life: in vivo; for clearance: plasma, read-out: CI
# Description: The clearance and elimination of peptides can be mediated by multiple processes in vivo, including metabolism and renal elimination.
# Test compounds were intravenously (i.v.) administered to male Spraque-Dawley rats (about is six weeks old, n=3 per compound) at 5 mg/kg. Blood samples were collected from jugular vein through implanted in-dwelling catheters (250 pl blood) into labelled polypropylene tubes containing anticoagulant (heparin) at 2 min, 5 min,15 min, 30 min, 1 h, 2 h and 4 h after compound administration and held on wet ice for a maximum of 30 minutes. The blood samples were centrifuged for plasma separation (4 °C, 21100 G, 5 min). Tolbutamide 500ng/ml with 10% TFA in acetonitrile or in MeCN was used as an internal standard solution.
# The standard samples were prepared into rat plasma by spiking the matrix into concentrations 2-10 000 ng/ml of the analyte, respectively, and otherwise treated as the samples. To 50 pl aliquots of sample plasma was added 200 pl of internal standard. Samples were mixed (150 rpm, 15 min) and centrifugated (3000 rpm, 15min). The analytical method was optimized for reaction monitoring chromatographic (peak shape & retention) shifts and mass spectrometric properties (ionization efficiency, MS/MS detection). Supernatants were analyzed by UHPLC-TOF mass spectrometry using electrospray ionization.
# [4] = In vitro metabolic stability in human plasma; assay type: in vitro ADME; settings: 1 μM, 37° C., up to 120 min
# Description: s Metabolic stability studied using human plasma over the time period of 120 min, with initial test concentration of 1 μM. Samples were analyzed using LC/QE-orbitrap-MS. Calculated half-life is based on compound disappearance in human plasma.
# The linear or macrocyclic compounds 1-8, 11-14 and 23-24 (SEQ ID NOs: 1-8, 11-14 and 23-26) were incubated in concentration 1 μM with human plasma (mixed gender, 400 μl) for different time points (0, 20, 40, 60 or 120 min) at 37° C. The incubation was terminated by acetonitrile. The collected samples were centrifuged for 20 min at 2272×g and analyzed. The samples were analyzed by UHPLC/PDA with high resolution mass spectrometry (QE-Orbitrap-MS on DDI mode) to monitor disappearance of the compound. Propanthelin […] bromide 1 μM was used as a disappearance rate control. The analytical method was optimized by using the parent compounds for optimum chromatographic properties (peak shape and retention) and mass spectrometric ionization. The Ion chromatograms were extracted from the total ion chromatograms using calculated monoisotopic accurate masses with 5 mDa window. Disappearance was based on LC/MS peak areas, marking 0 min as 100%. The first-order rate constants k (min-1) of the metabolism were obtained from the slope of time versus logarithm (% of remaining compound) plot using Excel software.
SMILES,stability in rat plasma as compared to linear counterpart [1],Kd (GRP78-NBD) [µM],neuroprotective effect in the presence of PERK inhibitor GSK2606414 [2],neuroprotective effect in the presence of IRE1alpha inhibitor KIRA6 [2],AUC(0-inf) [3] [ng·h/mL],MRT [3] [min],Vd [3] [L/kg],half-life [3] [min],clearance [3] [mL/min/kg],stability in human plasma as compared to linear counterpart [4],"plasma half-life, volume of distribution and mean residence time ([3]; intravenous administration to rats)","blood retention behavior ([3]; intravenous, 5 mg/kg, rats)","time detected in the plasma after administration ([3]; intravenous, 5 mg/kg, rats) [h]"
CC[C@H](C)[C@@H]1NC(=O)[C@H](CCCCN)NC(=O)[C@H](CCCCN)NC(=O)[C@H](CC(C)C)NC(=O)[C@H](CCC(=O)O)NC(=O)[C@H](CCCCN)NC(=O)[C@H](C(C)C)NC(=O)[C@H](CCCNC(=N)N)NC(=O)[C@H](CC(C)C)NC(=O)[C@H](CCCCN)NC(=O)[C@H](CCC(=O)O)NC(=O)[C@H](C)NC(=O)[C@@H]2CSSC[C@H](NC(=O)[C@H]([C@@H](C)O)NC(=O)[C@H](CCC(=O)O)NC(=O)CNC(=O)[C@H](Cc3c[nH]c4ccccc34)NC(=O)[C@H](CC(=O)O)NC(=O)[C@H](CC(=O)O)NC(=O)[C@H](CC(C)C)NC1=O)C(=O)N[C@@H](CCCCN)C(=O)NCC(=O)N2 [Compound 8] (cyclo(AEKLRVKELKKILDDWGETCKGC); disulfide 20-23),improved stability,,,,,,,,,,,,
"C[C@@H]1NC(=O)[C@@H]2CSSC[C@H](NC(=O)[C@H](CCC(=O)O)NC(=O)[C@H](CCC(=O)O)NC(=O)CNC(=O)[C@H](Cc3c[nH]c4ccccc34)NC(=O)[C@H]([C@@H](C)O)NC(=O)[C@H](CCCCN)NC(=O)[C@H](CCC(=O)O)NC1=O)C(=O)N[C@@H](CCCNC(=N)N)C(=O)N[C@@H](C)C(=O)N2 [Compound 12, WGEECRACAEKT] (cyclo(ACAEKTWGEECR); disulfide 2-11)",,1.65,,,,,,,,,,,
"CC[C@H](C)[C@@H]1NC(=O)[C@H](CO)NC(=O)[C@H](CCCCN)NC(=O)[C@H](CCC(=O)O)NC(=O)[C@H](C)NC(=O)[C@@H]2CSSC[C@H](NC(=O)[C@H]([C@@H](C)O)NC(=O)[C@H](CCC(=O)O)NC(=O)CNC(=O)[C@H](Cc3c[nH]c4ccccc34)NC(=O)[C@H](CC(=O)O)NC(=O)[C@H](CC(=O)O)NC(=O)[C@H](CC(C)C)NC1=O)C(=O)N[C@@H](CCCCN)C(=O)NCC(=O)N2 [Compound 10, KSILDDWGETCKGCAE] (cyclo(AEKSILDDWGETCKGC); disulfide 13-16)",improved stability,,abolished,abolished,2140,1.2,0.05,3.6,39.9,,,,
CC[C@H](C)[C@@H]1NC(=O)[C@H](CCC(N)=O)NC(=O)[C@H](CCCCN)NC(=O)[C@H](CC(C)C)NC(=O)[C@H](CCC(=O)O)NC(=O)[C@H](C)NC(=O)[C@H](C(C)C)NC(=O)[C@H](CCCNC(=N)N)NC(=O)[C@H](CCSC)NC(=O)[C@H](CCCCN)NC(=O)[C@H](CCCNC(=N)N)NC(=O)[C@H](CC(C)C)NC(=O)[C@H](CC(=O)O)NC(=O)[C@H](C(C)C)NC(=O)[C@H](CCC(=O)O)NC(=O)[C@H](C)NC(=O)[C@@H]2CSSC[C@H](NC(=O)[C@H](CCC(=O)O)NC(=O)[C@H](CCC(=O)O)NC(=O)CNC(=O)[C@H](Cc3c[nH]c4ccccc34)NC(=O)[C@H](CO)NC(=O)[C@H](Cc3c[nH]cn3)NC(=O)[C@H](CC(C)C)NC1=O)C(=O)N[C@@H](CCCNC(=N)N)C(=O)N[C@@H](C)C(=O)N2 [Compound 2] (cyclo(ACAEVDLRKMRVAELKQILHSWGEECR); disulfide 2-26),improved stability,,,,4440,1.01,0.02,3.78,20.6,improved stability,,,
"C[C@@H]1NC(=O)[C@@H]2CSSC[C@H](NC(=O)[C@H]([C@@H](C)O)NC(=O)[C@H](CCC(=O)O)NC(=O)CNC(=O)[C@H](Cc3c[nH]c4ccccc34)NC(=O)[C@H](CO)NC(=O)[C@H](CCCCN)NC(=O)[C@H](CCC(=O)O)NC1=O)C(=O)N[C@@H](CCCCN)C(=O)NCC(=O)NCC(=O)N2 [Compound 26, WGETCKGGCAEKS] (cyclo(AEKSWGETCKGGC); disulfide 9-13)",improved stability,,,,,,,,,improved stability,,,
"C[C@@H]1NC(=O)[C@@H]2CSSC[C@H](NC(=O)[C@H]([C@@H](C)O)NC(=O)[C@H](CCC(=O)O)NC(=O)CNC(=O)[C@H](Cc3c[nH]c4ccccc34)NC(=O)[C@H](CO)NC(=O)[C@H](CCCCN)NC(=O)[C@H](CCC(=O)O)NC1=O)C(=O)N[C@@H](CCCCN)C(=O)NCC(=O)N2 [Compound 14, WGETCKGCAEKS] (cyclo(AEKSWGETCKGC); disulfide 9-12)",improved stability,1.5,abolished,abolished,4970,7.05,0.12,15.8,16.8,,improved,improved blood retention behavior,≥ 2
